{"source": "the supplement of paper PMC10307832", "test_in_all_cases": "relative viability (nuclei count vs DMSO), 5 days (fraction); higher = more cells survive", "key": {"LU99A": {"test_system": "LU99A", "in_short": "(§1)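 Relative viability is defined as nuclei in treated wells over nuclei in vehicle wells. Duplicate plates were run and medians reported. Lung cancer cell lines in 1536-well plates were dosed by pin tool one day after seeding, with one drug or with a fixed anchor-drug dose plus five library-drug doses (not always all listed) in √10 steps, and nuclei were counted after 5 days.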"}, "NCI-H1993": {"test_system": "NCI-H1993", "in_short": "as §1"}, "LC-2-ad": {"test_system": "LC-2-ad", "in_short": "as §1"}, "NCI-H2085": {"test_system": "NCI-H2085", "in_short": "as §1"}, "UMC-11": {"test_system": "UMC-11", "in_short": "as §1"}, "NCI-H2023": {"test_system": "NCI-H2023", "in_short": "as §1"}, "NCI-H1651": {"test_system": "NCI-H1651", "in_short": "as §1"}, "NCI-H2126": {"test_system": "NCI-H2126", "in_short": "as §1"}, "ABC-1": {"test_system": "ABC-1", "in_short": "as §1"}, "EPLC-272H": {"test_system": "EPLC-272H", "in_short": "as §1"}, "COR-L23": {"test_system": "COR-L23", "in_short": "as §1"}}, "data": [{"molecule": "NC(=O)Nc1cc(-c2cccc(F)c2)sc1C(=O)N[C@H]1CCCNC1", "note": "[AZD7762] + Cc1nc(NC(=O)N2CCC[C@H]2C(N)=O)sc1-c1ccnc(C(C)(C)C(F)(F)F)c1 [Alpelisib] (partner 2 µM)", "values": [{"measurement": "relative viability", "setting": "LU99A; first compound 0.01 µM", "value": 0.575}, {"measurement": "relative viability", "setting": "LU99A; first compound 0.03162 µM", "value": 0.568}, {"measurement": "relative viability", "setting": "LU99A; first compound 0.1 µM", "value": 0.543}, {"measurement": "relative viability", "setting": "LU99A; first compound 0.3162 µM", "value": 0.514}, {"measurement": "relative viability", "setting": "LU99A; first compound 1 µM", "value": 0.329}, {"measurement": "relative viability", "setting": "NCI-H1993; first compound 0.01 µM", "value": 0.671}, {"measurement": "relative viability", "setting": "NCI-H1993; first compound 0.03162 µM", "value": 0.708}, {"measurement": "relative viability", "setting": "NCI-H1993; first compound 0.1 µM", "value": 0.651}, {"measurement": "relative viability", "setting": "NCI-H1993; first compound 0.3162 µM", "value": 0.673}, {"measurement": "relative viability", "setting": "NCI-H1993; first compound 1 µM", "value": 0.753}, {"measurement": "relative viability", "setting": "LC-2-ad; first compound 0.01 µM", "value": 0.979}, {"measurement": "relative viability", "setting": "LC-2-ad; first compound 0.03162 µM", "value": 0.897}, {"measurement": "relative viability", "setting": "LC-2-ad; first compound 0.1 µM", "value": 0.795}, {"measurement": "relative viability", "setting": "LC-2-ad; first compound 0.3162 µM", "value": 0.612}, {"measurement": "relative viability", "setting": "LC-2-ad; first compound 1 µM", "value": 0.433}, {"measurement": "relative viability", "setting": "NCI-H2085; first compound 0.01 µM", "value": 1.06}, {"measurement": "relative viability", "setting": "NCI-H2085; first compound 0.03162 µM", "value": 0.928}, {"measurement": "relative viability", "setting": "NCI-H2085; first compound 0.1 µM", "value": 1.1}, {"measurement": "relative viability", "setting": "NCI-H2085; first compound 0.3162 µM", "value": 1.06}, {"measurement": "relative viability", "setting": "NCI-H2085; first compound 1 µM", "value": 0.782}, {"measurement": "relative viability", "setting": "UMC-11; first compound 0.01 µM", "value": 1.03}, {"measurement": "relative viability", "setting": "UMC-11; first compound 0.03162 µM", "value": 0.962}, {"measurement": "relative viability", "setting": "UMC-11; first compound 0.1 µM", "value": 1.06}, {"measurement": "relative viability", "setting": "UMC-11; first compound 0.3162 µM", "value": 1.03}, {"measurement": "relative viability", "setting": "UMC-11; first compound 1 µM", "value": 0.653}, {"measurement": "relative viability", "setting": "NCI-H2023; first compound 0.01 µM", "value": 0.651}, {"measurement": "relative viability", "setting": "NCI-H2023; first compound 0.03162 µM", "value": 0.608}, {"measurement": "relative viability", "setting": "NCI-H2023; first compound 0.1 µM", "value": 0.436}, {"measurement": "relative viability", "setting": "NCI-H2023; first compound 0.3162 µM", "value": 0.328}, {"measurement": "relative viability", "setting": "NCI-H2023; first compound 1 µM", "value": 0.108}, {"measurement": "relative viability", "setting": "NCI-H1651; first compound 0.01 µM", "value": 0.918}, {"measurement": "relative viability", "setting": "NCI-H1651; first compound 0.03162 µM", "value": 0.849}, {"measurement": "relative viability", "setting": "NCI-H1651; first compound 0.1 µM", "value": 0.927}, {"measurement": "relative viability", "setting": "NCI-H1651; first compound 0.3162 µM", "value": 0.753}, {"measurement": "relative viability", "setting": "NCI-H1651; first compound 1 µM", "value": 0.33}, {"measurement": "relative viability", "setting": "NCI-H2126; first compound 0.01 µM", "value": 0.794}, {"measurement": "relative viability", "setting": "NCI-H2126; first compound 0.03162 µM", "value": 0.775}, {"measurement": "relative viability", "setting": "NCI-H2126; first compound 0.1 µM", "value": 0.887}, {"measurement": "relative viability", "setting": "NCI-H2126; first compound 0.3162 µM", "value": 0.824}, {"measurement": "relative viability", "setting": "NCI-H2126; first compound 1 µM", "value": 0.85}, {"measurement": "relative viability", "setting": "ABC-1; first compound 0.01 µM", "value": 1.03}, {"measurement": "relative viability", "setting": "ABC-1; first compound 0.03162 µM", "value": 0.831}, {"measurement": "relative viability", "setting": "ABC-1; first compound 0.1 µM", "value": 0.942}, {"measurement": "relative viability", "setting": "ABC-1; first compound 0.3162 µM", "value": 0.557}, {"measurement": "relative viability", "setting": "ABC-1; first compound 1 µM", "value": 0.311}, {"measurement": "relative viability", "setting": "EPLC-272H; first compound 0.01 µM", "value": 1.07}, {"measurement": "relative viability", "setting": "EPLC-272H; first compound 0.03162 µM", "value": 1.1}, {"measurement": "relative viability", "setting": "EPLC-272H; first compound 0.1 µM", "value": 1.13}, {"measurement": "relative viability", "setting": "EPLC-272H; first compound 0.3162 µM", "value": 0.992}, {"measurement": "relative viability", "setting": "EPLC-272H; first compound 1 µM", "value": 0.674}, {"measurement": "relative viability", "setting": "COR-L23; first compound 0.01 µM", "value": 0.938}, {"measurement": "relative viability", "setting": "COR-L23; first compound 0.03162 µM", "value": 0.895}, {"measurement": "relative viability", "setting": "COR-L23; first compound 0.1 µM", "value": 0.797}, {"measurement": "relative viability", "setting": "COR-L23; first compound 0.3162 µM", "value": 0.621}, {"measurement": "relative viability", "setting": "COR-L23; first compound 1 µM", "value": 0.162}]}]}
